Source: patent publication US20260070945A1, “MACROCYCLIC IMMUNOMODULATORS” (Bristol-Myers Squibb Company, priority 2022, published 2026)
*1 amine or outer side, *2 acyl side, *3 side chain or, on linkers, in order; H or OH if unused. Where a SMILES comes first, the peptide text is derived from it. Bridges are numbered along the chain shown (N, C = ends). [ ]: non-standard residue; d: D form. The star is where a group is joined. Phe(4-guanidino) = N=C(N)Nc1ccc(C[C@H](N)C(=O)O)cc1; Phe(4-CH2NH2) = NCc1ccc(C[C@H](N)C(=O)O)cc1; Bip = N[C@@H](Cc1ccc(-c2ccccc2)cc1)C(=O)O; Phe(4-NH2) = Nc1ccc(C[C@H](N)C(=O)O)cc1; Phe(3-Me) = Cc1cccc(C[C@H](N)C(=O)O)c1; Gly(decyl) = CCCCCCCCCC[C@H](N)C(=O)O; NH(CH2)8CO = O=C(CCCCCCCCN[*:1])[*:2]; Cha = N[C@@H](CC1CCCCC1)C(=O)O; 12Ado = NCCCCCCCCCCCC(=O)O; Carboxymethyl = O=C(O)C*; NMeA = CN[C@@H](C)C(=O)O; Orn = NCCC[C@H](N)C(=O)O; Aun = NCCCCCCCCCCC(=O)O; Dab = NCC[C@H](N)C(=O)O; AEEA = NCCOCCOCC(=O)O; Ac3c = NC1(C(=O)O)CC1; Aoc = NCCCCCCCC(=O)O

What follows are compounds tested against T1, PD-1/PD-L1 interaction (PE-labeled human PD-L1-Ig binding to Jurkat cell line over-expressing human PD-1) (Homo sapiens, UniProt Q15116) (assay: Jurkat-PD-1 Cell Binding High-Content Screening Assay (CBA)). Conditions: PE-labeled PD-L1-Ig 20 nM final, Jurkat-hPD-1 cells; read-out: Jurkat HPD1 PDL1 IC50.
T1 construct: expressed in transfected cells; host or cells: Jurkat
T1 sequence (Q15116 25-288): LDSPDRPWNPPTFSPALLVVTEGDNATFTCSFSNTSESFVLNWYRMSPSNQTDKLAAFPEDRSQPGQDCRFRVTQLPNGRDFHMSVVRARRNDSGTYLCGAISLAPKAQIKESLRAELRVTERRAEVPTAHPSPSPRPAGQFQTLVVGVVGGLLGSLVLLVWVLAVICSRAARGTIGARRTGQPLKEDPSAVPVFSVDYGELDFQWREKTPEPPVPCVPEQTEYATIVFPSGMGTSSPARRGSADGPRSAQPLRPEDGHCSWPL
Procedure, shortened: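 Compound is added first to the PD-1-expressing Jurkat cells and held 2 h at 37 °C in serum-containing DMEM. The fluorescent PD-L1 fusion follows at 20 nM final for 1 h. Fixed, Hoechst-stained cells are then imaged for bound label.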

Row | Structure (SMILES) | IC50 [nM]
1 | Cc1cccc(C[C@@H]2NC(=O)[C@H](CC(=O)O)NC(=O)[C@H](Cc3ccc(CN)cc3)NC(=O)[C@H]([C@@H](C)O)NC(=O)CSC[C@@H](C(=O)N[C@@H](CCN)C(=O)NCCCCCCCCC(=O)NCCCCCCCCCCC(=O)O)NC(=O)[C@H](CCCN)NC(=O)[C@H](C(C)C)NC(=O)[C@H](CC3CCCCC3)NC(=O)[C@H](CCN)NC(=O)[C@@H](CC(C)C)NC(=O)[C@H](C)N(C)C(=O)[C@H](Cc3ccc(CN)cc3)NC(=O)[C@H](Cc3ccc(-c4ccccc4)cc3)NC(=O)[C@H](Cc3ccc(CN)cc3)NC2=O)c1 [Example 2671] ({CH2CO}-T[Phe(4-CH2NH2)]D[Phe(3-Me)][Phe(4-CH2NH2)][Bip][Phe(4-CH2NH2)][NMeA][dL][Dab][Cha]V[Orn]C[Dab][NH(CH2)8CO][Aun]-OH; thioether N-14) | 30.1
2 | Cc1cccc(C[C@@H]2NC(=O)[C@H](CC(=O)O)NC(=O)[C@H](Cc3ccc(OCC(=O)O)cc3)NC(=O)[C@H]([C@@H](C)O)NC(=O)CSC[C@@H](C(=O)N[C@@H](CCN)C(=O)NCCOCCOCC(=O)NCCCCCCCCCCCC(=O)O)NC(=O)C3(CC3)NC(=O)[C@H](C(C)C)NC(=O)[C@H](CC3CCCCC3)NC(=O)[C@H](CCN)NC(=O)[C@@H](CC(C)C)NC(=O)[C@H](C)N(C)C(=O)[C@H](Cc3ccc(OCC(=O)O)cc3)NC(=O)[C@H](Cc3ccc(-c4ccccc4)cc3)NC(=O)[C@H](Cc3ccc(OCC(=O)O)cc3)NC2=O)c1 [Example 2672] ({CH2CO}-TY(Carboxymethyl)D[Phe(3-Me)]Y(Carboxymethyl)[Bip]Y(Carboxymethyl)[NMeA][dL][Dab][Cha]V[Ac3c]C[Dab][AEEA][12Ado]-OH; thioether N-14) | 200
3 | CCCCCCCCCC[C@@H]1NC(=O)[C@H](C(C)C)NC(=O)[C@H](CC2CCCCC2)NC(=O)[C@H](CCN)NC(=O)[C@@H](CC(C)C)NC(=O)[C@H](C)N(C)C(=O)[C@H](Cc2ccc(OCC(=O)O)cc2)NC(=O)[C@H](Cc2ccc(-c3ccccc3)cc2)NC(=O)[C@H](Cc2ccc(OCC(=O)O)cc2)NC(=O)[C@H](Cc2cccc(C)c2)NC(=O)[C@H](CC(=O)O)NC(=O)[C@H](Cc2ccc(OCC(=O)O)cc2)NC(=O)[C@H]([C@@H](C)O)NC(=O)CSC[C@@H](C(=O)N[C@@H](CCN)C(=O)NCCOCCOCC(=O)NCCCCCCCCCCCC(=O)O)NC1=O [Example 2673] ({CH2CO}-TY(Carboxymethyl)D[Phe(3-Me)]Y(Carboxymethyl)[Bip]Y(Carboxymethyl)[NMeA][dL][Dab][Cha]V[Gly(decyl)]C[Dab][AEEA][12Ado]-OH; thioether N-14) | 90.3
4 | CC(=O)NCC[C@H](NC(=O)[C@@H]1CSCC(=O)N[C@@H]([C@@H](C)O)C(=O)N[C@@H](Cc2ccc(OCC(=O)O)cc2)C(=O)N[C@@H](CC(=O)O)C(=O)N[C@@H](Cc2cccc(C)c2)C(=O)N[C@@H](Cc2ccc(OCC(=O)O)cc2)C(=O)N[C@@H](Cc2ccc(-c3ccccc3)cc2)C(=O)N[C@@H](Cc2ccc(OCC(=O)O)cc2)C(=O)N(C)[C@@H](C)C(=O)N[C@H](CC(C)C)C(=O)N[C@@H](CCNC(C)=O)C(=O)N[C@@H](CC2CCCCC2)C(=O)N[C@@H](C(C)C)C(=O)N[C@@H](CCC(=O)O)C(=O)N1)C(=O)NCCCCCCCC(=O)NCCCCCCCCCCCC(=O)O [Example 2676] ({CH2CO}-TY(Carboxymethyl)D[Phe(3-Me)]Y(Carboxymethyl)[Bip]Y(Carboxymethyl)[NMeA][dL][Dab](Ac)[Cha]VEC[Dab](Ac)[Aoc][12Ado]-OH; thioether N-14) | 503
5 | Cc1cccc(C[C@@H]2NC(=O)[C@H](CC(=O)O)NC(=O)[C@H](Cc3ccc(OCC(=O)O)cc3)NC(=O)[C@H]([C@@H](C)O)NC(=O)CSC[C@@H](C(=O)N[C@@H](CCC(=O)O)C(=O)NCCOCCOCC(=O)NCCCCCCCCCCCC(=O)O)NC(=O)CNC(=O)[C@H](C(C)C)NC(=O)[C@H](CC3CCCCC3)NC(=O)[C@@H](CCC(=O)O)NC(=O)[C@@H](CC(C)C)NC(=O)[C@H](C)N(C)C(=O)[C@H](Cc3ccc(OCC(=O)O)cc3)NC(=O)[C@H](Cc3ccc(-c4ccccc4)cc3)NC(=O)[C@H](Cc3ccc(OCC(=O)O)cc3)NC2=O)c1 [Example 2686] ({CH2CO}-TY(Carboxymethyl)D[Phe(3-Me)]Y(Carboxymethyl)[Bip]Y(Carboxymethyl)[NMeA][dL][dE][Cha]VGCE[AEEA][12Ado]-OH; thioether N-14) | 257

Results, then the compound that gave them:

Row | IC50 [nM] | Structure (SMILES)
6 | 21.3 | Cc1cccc(C[C@@H]2NC(=O)[C@H](CC(=O)O)NC(=O)[C@H](Cc3ccc(OCC(=O)O)cc3)NC(=O)[C@H]([C@@H](C)O)NC(=O)CSC[C@@H](C(=O)N[C@@H](CCN)C(=O)NCCOCCOCC(=O)NCCCCCCCCCCCC(=O)O)NC(=O)[C@H](Cc3ccc(-c4ccccc4)cc3)NC(=O)[C@H](C(C)C)NC(=O)[C@H](CC3CCCCC3)NC(=O)[C@H](CCN)NC(=O)[C@@H](CC(C)C)NC(=O)[C@H](C)N(C)C(=O)[C@H](Cc3ccc(OCC(=O)O)cc3)NC(=O)[C@H](Cc3ccc(-c4ccccc4)cc3)NC(=O)[C@H](Cc3ccc(OCC(=O)O)cc3)NC2=O)c1 [Example 2674] ({CH2CO}-TY(Carboxymethyl)D[Phe(3-Me)]Y(Carboxymethyl)[Bip]Y(Carboxymethyl)[NMeA][dL][Dab][Cha]V[Bip]C[Dab][AEEA][12Ado]-OH; thioether N-14)
7 | 12.2 | Cc1cccc(C[C@@H]2NC(=O)[C@H](CC(=O)O)NC(=O)[C@H](Cc3ccc(OCC(=O)O)cc3)NC(=O)[C@H]([C@@H](C)O)NC(=O)CSC[C@@H](C(=O)N[C@@H](CCN)C(=O)NCCCCCCCCCCCC(=O)NCCCCCCCCCCC(=O)O)NC(=O)[C@H](CCC(=O)O)NC(=O)[C@H](C(C)C)NC(=O)[C@H](CC3CCCCC3)NC(=O)[C@H](CCN)NC(=O)[C@@H](CC(C)C)NC(=O)[C@H](C)N(C)C(=O)[C@H](Cc3ccc(OCC(=O)O)cc3)NC(=O)[C@H](Cc3ccc(-c4ccccc4)cc3)NC(=O)[C@H](Cc3ccc(OCC(=O)O)cc3)NC2=O)c1 [Example 2679] ({CH2CO}-TY(Carboxymethyl)D[Phe(3-Me)]Y(Carboxymethyl)[Bip]Y(Carboxymethyl)[NMeA][dL][Dab][Cha]VEC[Dab][12Ado][Aun]-OH; thioether N-14)
8 | 58 | Cc1cccc(C[C@@H]2NC(=O)[C@H](CC(=O)O)NC(=O)[C@H](Cc3ccc(OCC(=O)O)cc3)NC(=O)[C@H]([C@@H](C)O)NC(=O)CSC[C@@H](C(=O)N[C@@H](CCN)C(=O)NCCCCCCCCCCCC(=O)NCCCCCCCCCCCC(=O)O)NC(=O)[C@H](CCC(=O)O)NC(=O)[C@H](C(C)C)NC(=O)[C@H](CC3CCCCC3)NC(=O)[C@H](CCN)NC(=O)[C@@H](CC(C)C)NC(=O)[C@H](C)N(C)C(=O)[C@H](Cc3ccc(OCC(=O)O)cc3)NC(=O)[C@H](Cc3ccc(-c4ccccc4)cc3)NC(=O)[C@H](Cc3ccc(OCC(=O)O)cc3)NC2=O)c1 [Example 2682] ({CH2CO}-TY(Carboxymethyl)D[Phe(3-Me)]Y(Carboxymethyl)[Bip]Y(Carboxymethyl)[NMeA][dL][Dab][Cha]VEC[Dab][12Ado][12Ado]-OH; thioether N-14)
9 | 4.4 | Cc1cccc(C[C@@H]2NC(=O)[C@H](CC(=O)O)NC(=O)[C@H](Cc3ccc(NC(=N)N)cc3)NC(=O)[C@H]([C@@H](C)O)NC(=O)CSC[C@@H](C(=O)N[C@@H](CCN)C(=O)NCCCCCCCCC(=O)NCCCCCCCCCCC(=O)O)NC(=O)[C@H](CCCN)NC(=O)[C@H](C(C)C)NC(=O)[C@H](CC3CCCCC3)NC(=O)[C@H](CCN)NC(=O)[C@@H](CC(C)C)NC(=O)[C@H](C)N(C)C(=O)[C@H](Cc3ccc(NC(=N)N)cc3)NC(=O)[C@H](Cc3ccc(-c4ccccc4)cc3)NC(=O)[C@H](Cc3ccc(NC(=N)N)cc3)NC2=O)c1 [Example 2684] ({CH2CO}-T[Phe(4-guanidino)]D[Phe(3-Me)][Phe(4-guanidino)][Bip][Phe(4-guanidino)][NMeA][dL][Dab][Cha]V[Orn]C[Dab][NH(CH2)8CO][Aun]-OH; thioether N-14)
10 | 54.5 | Cc1cccc(C[C@@H]2NC(=O)[C@H](CC(=O)O)NC(=O)[C@H](Cc3ccc(OCC(=O)O)cc3)NC(=O)[C@H]([C@@H](C)O)NC(=O)CSC[C@@H](C(=O)NCC(=O)NCCOCCOCC(=O)NCCCCCCCCCCCC(=O)O)NC(=O)CNC(=O)[C@H](C(C)C)NC(=O)[C@H](CC3CCCCC3)NC(=O)[C@@H](CCC(=O)O)NC(=O)[C@@H](CC(C)C)NC(=O)[C@H](C)N(C)C(=O)[C@H](Cc3ccc(OCC(=O)O)cc3)NC(=O)[C@H](Cc3ccc(-c4ccccc4)cc3)NC(=O)[C@H](Cc3ccc(OCC(=O)O)cc3)NC2=O)c1 [Example 2688] ({CH2CO}-TY(Carboxymethyl)D[Phe(3-Me)]Y(Carboxymethyl)[Bip]Y(Carboxymethyl)[NMeA][dL][dE][Cha]VGCG[AEEA][12Ado]-OH; thioether N-14)
11 | 6.1 | Cc1cccc(C[C@@H]2NC(=O)[C@H](CC(=O)O)NC(=O)[C@H](Cc3ccc(N)cc3)NC(=O)[C@H]([C@@H](C)O)NC(=O)CSC[C@@H](C(=O)N[C@@H](CCN)C(=O)NCCCCCCCCC(=O)NCCCCCCCCCCC(=O)O)NC(=O)[C@H](CCCN)NC(=O)[C@H](C(C)C)NC(=O)[C@H](CC3CCCCC3)NC(=O)[C@H](CCN)NC(=O)[C@@H](CC(C)C)NC(=O)[C@H](C)N(C)C(=O)[C@H](Cc3ccc(N)cc3)NC(=O)[C@H](Cc3ccc(-c4ccccc4)cc3)NC(=O)[C@H](Cc3ccc(N)cc3)NC2=O)c1 [Example 2689] ({CH2CO}-T[Phe(4-NH2)]D[Phe(3-Me)][Phe(4-NH2)][Bip][Phe(4-NH2)][NMeA][dL][Dab][Cha]V[Orn]C[Dab][NH(CH2)8CO][Aun]-OH; thioether N-14)
